Reference: the NIST ThermoML archive (doi:10.1021/je800600q)
± gives the expanded uncertainty stated by the source.

Conditions: Crystal; DTA

Which Normal melting temperature does the source give for `CCc1occc(=O)c1O` [2-ethyl-3-hydroxy-4H-pyran-4-one] here?
Its Normal melting temperature is 91.02 ± 0.5 °C.
